Assay results reported in patent publication US4220790A, “1-N,N-Dimethylcarbamyl-3-tert.butyl-5-methylthio-1,2,4-triazole” (priority 1977, dated 1980).

Tests used:
two-spotted mites = experiment: Spray test on two-spotted mites (TSM); design: species or system two-spotted mite; conditions: in vivo
Method: Method for Mites, Aphids, Bean Beetles and Army Worms
Three 5 oz. paper cups containing Henderson dwarf lima bean plants and one 5 oz. paper cup containing Orange Gem nasturtiums, all growing in vermiculite, are placed on a turntable and sprayed to thorough wetness with 25 ml of a solution of the candidate chemical at the appropriate concentration. Nasturtiums were already infested with 50-100 bean aphids (BA). A bean plant in one paper cup was already infested with 50-100 two-spotted mites (TSM). Leaves from the two remaining bean plants are removed following spraying and placed in disposable petri dishes with 5 southern armyworm (SA) larvae in one petri dish, and 5 Mexican bean beetle (MBB) larvae in the other petri dish. The rating is done approximately 48 hours after spraying as follows:
(§1) Results obtained with the novel insecticide of this invention at various concentrations of active chemical are tabulated below. The ratings given are for averages of three or more replicates. The oral lethal dose for 50 percent kill of laboratory rats is also recorded in the table. In conducting the toxicity tests on rats, 0.01 g of active chemical per ml in corn oil is employed as an additive to the diet of the animals.

Southern Corn Rootworm [1] = experiment: Southern corn rootworm (SCR) test in cups with corn; format: in vivo; conditions: for Corn Rootworm (SCR) rating: nine days after treatment; for toxicity to corn rootworm (in words): comparative tests, nineteen compounds
Method: Method for Southern Corn Rootworm (SCR)
Three 5 oz. paper cups planted each with one kernel of DeKalb XL-361 corn are treated two days after planting with 10 ml of a 125 ppm solution of the candidate compound. Compounds with high efficacy are tested at lower concentrations. The experiment is a 4×5 factorial in a randomized complete block design with three replications. The tests are evaluated nine days after treatment. The roots are inspected under a dissecting microscope and rated as follows:
SCR Rating % Root Feeding Damage
So as to obtain more meaningful results, all tests are performed at the same time of day, whenever possible, usually in the forenoon. Temperature,illumination and humidity are the same in all tests. Atmospheric pressure is not controlled.
as §1

Southern corn rootworm [2] = experiment: Corn rootworm control under corn growing conditions, aging in soil, root damage rating; format: in vivo, Diabrotica undecimpunctata howardi; design: AVERAGE ROOT DAMAGE RATINGS, Test No. 1 / AVERAGE ROOT DAMAGE RATINGS, Test No. 2 / AVERAGE ROOT DAMAGE RATINGS, Test No. 3 / AVERAGE ROOT DAMAGE RATINGS, Test No. 4 / AVERAGE ROOT DAMAGE RATINGS, Test No. 5: scale not given here; conditions: for AVERAGE ROOT DAMAGE RATINGS, Test No. 3 / AVERAGE ROOT DAMAGE RATINGS, Test No. 4 / AVERAGE ROOT DAMAGE RATINGS, Test No. 5: 1.0 lb/A; for AVERAGE ROOT DAMAGE RATINGS, Test No. 3 / AVERAGE ROOT DAMAGE RATINGS, Test No. 1: aged 11 days; for AVERAGE ROOT DAMAGE RATINGS, Test No. 4: aged 26 days; for AVERAGE ROOT DAMAGE RATINGS, Test No. 5 / AVERAGE ROOT DAMAGE RATINGS, Test No. 2: aged 41 days; for AVERAGE ROOT DAMAGE RATINGS, Test No. 1 / AVERAGE ROOT DAMAGE RATINGS, Test No. 2: 10.0 lb/A
From the text: During this period of time in the soil the insecticide concentration diminishes as a result of leaching and the action of oxygen and soil microbes, so that it is difficult to maintain sufficient concentration to kill the rootworms. […] Less than a half dozen compounds enjoy substantial commercial success for this purpose. […] Carbofuran was therefore selected as a standard for comparison of his compound and closely related compounds for corn rootworm control under corn growing conditions. The organism used in these tests were Diabrotica undecimpunctata howardi, the Southern corn rootworm. The following method was employed in the tests:
Two parallel rows of corn (Pioneer 385 g×526 g untreated) were planted 2" apart down the center of Mirro No. C8509 aluminum bread pans, 5 kernels corn per row in greenhouse potting soil. The dimensions of the bread pans are 95/8"×51/2"×23/4" and lack holes in the bottoms of the pans. Each kernel of corn at time of germination was infested with 3-day-old SCR eggs, approximately 50 eggs per kernel. Test pans were treated by drenching 200 mls of test solution (Triton X-100, water and the test chemical dissolved in 5 mls acetone) on the surface of the soil in the bread pan. The schedule for treating, planting corn, and infesting with corn rootworm eggs were varied to test aging characteristics of the compounds in soil. The test pans were watered daily and held at 80° F. and 50% R.H. until rated. Root damage rating was done by the following rating sequence:
Rating % Root Damage Rating
The chemical compound which were tested were those of the structural formula [drawing 5] in which R represents tert.butyl, methyl, ethyl, propyl, butyl and isobutyl.
The comparison standard was carbofuran (2,3-dihydro-2,2-dimethyl-7-benzofuranyl methylcarbamate).
The tests were conducted during the months of July and August according to the time schedule as set forth below: […]

[3] = tested on: insects of the orders Coleoptera and Orthoptera; experiment: Effectiveness against insects of the orders Coleoptera and Orthoptera; format: in vivo

Structure (SMILES) | miticidal activity (in words) (two-spotted mites) | Corn Rootworm (SCR) rating (Southern Corn Rootworm [1]; 3 ppm, listed as U.S.Ser.No. 842,760) | Corn Rootworm (SCR) rating (Southern Corn Rootworm [1]; 6 ppm) | toxicity to corn rootworm (in words) (Southern Corn Rootworm [1]) | AVERAGE ROOT DAMAGE RATINGS, Test No. 3 (Southern corn rootworm [2]) | AVERAGE ROOT DAMAGE RATINGS, Test No. 4 (Southern corn rootworm [2]) | AVERAGE ROOT DAMAGE RATINGS, Test No. 5 (Southern corn rootworm [2]) | AVERAGE ROOT DAMAGE RATINGS, Test No. 1 (Southern corn rootworm [2]) | AVERAGE ROOT DAMAGE RATINGS, Test No. 2 (Southern corn rootworm [2]) | duration of efficacy against corn rootworm (in words) (Southern corn rootworm [2]; compared with carbofuran) | insecticidal effectiveness (in words) [3] | Corn Rootworm (SCR) rating (Southern Corn Rootworm [1]; 3 ppm) | Corn Rootworm (SCR) rating (Southern Corn Rootworm [1]; 12 ppm) | Corn Rootworm (SCR) rating (Southern Corn Rootworm [1]; 25 ppm) | Corn Rootworm (SCR) rating (Southern Corn Rootworm [1]; 100 ppm) | total kill of corn rootworm (in words) (Southern Corn Rootworm [1]; any concentration)
CSc1nc(C(C)(C)C)nn1C(=O)N(C)C [1-N,N-Dimethylcarbamyl-3-tert.butyl-5-methylthio-1,2,4-triazole] | absence of miticidal activity | 3.0 | 3.3 | displayed toxicity to corn rootworm | 4.5 | 4.1 | 4.6 | 5.0 | 4.3 | efficacy of long duration, comparable to the commercial insecticide | effective against insects of the orders Coleoptera and Orthoptera | – | – | – | – | –
CNC(=O)Oc1cccc2c1OC(C)(C)C2 [Carbofuran, 2,3-dihydro-2,2-dimethyl-7-benzofuranyl methylcarbamate] | – | – | – | – | 4.3 | 3.8 | 4.7 | 4.8 | 4.1 | – | – | – | – | – | – | –
CCc1nc(SC)n(C(=O)N(C)C)n1 [Example XVI] | – | – | – | displayed toxicity to corn rootworm | – | – | – | – | – | – | – | 0.5 | 2.5 | 3.5 | 3.7 | failed to give a total kill at any concentration
CCCCc1nc(SC)n(C(=O)N(C)C)n1 [R' = butyl] | – | – | – | – | 0 (100) | 0.4 | 0.5 | 4.4 | 3.6 | – | – | – | – | – | – | –
CCc1nc(SC)n(C(=O)N(C)C)n1 [R' = ethyl] | – | – | – | – | 0 (100) | 1.1 | 1.0 | 4.3 | 3.0 | – | – | – | – | – | – | –
CSc1nc(CC(C)C)nn1C(=O)N(C)C [R' = isobutyl] | – | – | – | – | 0.6 | 0.3 | 2.3 | 4.8 | 3.6 | – | – | – | – | – | – | –
CSc1nc(C)nn1C(=O)N(C)C [R' = methyl] | – | – | – | – | 0 (100) | 0.1 | 0.5 | 2.7 | 0 (100) | – | – | – | – | – | – | –
CCCc1nc(SC)n(C(=O)N(C)C)n1 [R' = propyl] | – | – | – | – | 0.3 | 1.8 | 2.3 | 4.4 | 3.1 | – | – | – | – | – | – | –
